ChEMBL document CHEMBL4732086, “Targeting nuclear protein TDP-43 by cell division cycle kinase 7 inhibitors: A new therapeutic approach for amyotrophic lateral sclerosis” (Eur J Med Chem, 2021)
The source made the active and inactive calls. No cut-off for these calls is given here.

Experiments:
[1] = target: Serine/threonine-protein kinase PAK 1 (Homo sapiens) (UniProt Q13153); assay: Inhibition of recombinant human full length GST-tagged PAK1 expressed in baculovirus expression system using serine/threonine-19 peptide as substrate at 10 uM by Z'-LYTE assay; details: time 60.0 min
Chain of Serine/threonine-protein kinase PAK 1 (Homo sapiens) (Q13153 whole entry): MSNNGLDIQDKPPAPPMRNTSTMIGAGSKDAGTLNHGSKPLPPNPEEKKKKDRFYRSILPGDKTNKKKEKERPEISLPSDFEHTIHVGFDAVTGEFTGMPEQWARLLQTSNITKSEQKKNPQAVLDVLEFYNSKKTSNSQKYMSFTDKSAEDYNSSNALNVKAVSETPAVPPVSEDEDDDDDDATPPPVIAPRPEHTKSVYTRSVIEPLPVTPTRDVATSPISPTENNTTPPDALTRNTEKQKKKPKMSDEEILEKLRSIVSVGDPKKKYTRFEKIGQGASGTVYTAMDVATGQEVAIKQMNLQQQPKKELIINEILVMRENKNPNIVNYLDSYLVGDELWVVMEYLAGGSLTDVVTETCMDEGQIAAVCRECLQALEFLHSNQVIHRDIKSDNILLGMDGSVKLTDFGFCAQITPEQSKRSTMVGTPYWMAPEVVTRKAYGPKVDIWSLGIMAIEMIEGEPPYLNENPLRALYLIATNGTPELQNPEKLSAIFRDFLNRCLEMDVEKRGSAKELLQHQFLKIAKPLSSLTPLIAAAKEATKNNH

[2] = target: Cell division cycle 7-related protein kinase (Homo sapiens) (UniProt O00311); assay: Inhibition of human CDC7 in human SH-SY5Y cells assessed as prevention of ethacrynic acid-induced cell death preincubated for 1 hr followed by incubation with ethacrynic acid for 24 hrs measured at 10 uM by MTT assay relative to control; assay type: cell-based
Chain of Cell division cycle 7-related protein kinase (Homo sapiens) (O00311 whole entry, looked up): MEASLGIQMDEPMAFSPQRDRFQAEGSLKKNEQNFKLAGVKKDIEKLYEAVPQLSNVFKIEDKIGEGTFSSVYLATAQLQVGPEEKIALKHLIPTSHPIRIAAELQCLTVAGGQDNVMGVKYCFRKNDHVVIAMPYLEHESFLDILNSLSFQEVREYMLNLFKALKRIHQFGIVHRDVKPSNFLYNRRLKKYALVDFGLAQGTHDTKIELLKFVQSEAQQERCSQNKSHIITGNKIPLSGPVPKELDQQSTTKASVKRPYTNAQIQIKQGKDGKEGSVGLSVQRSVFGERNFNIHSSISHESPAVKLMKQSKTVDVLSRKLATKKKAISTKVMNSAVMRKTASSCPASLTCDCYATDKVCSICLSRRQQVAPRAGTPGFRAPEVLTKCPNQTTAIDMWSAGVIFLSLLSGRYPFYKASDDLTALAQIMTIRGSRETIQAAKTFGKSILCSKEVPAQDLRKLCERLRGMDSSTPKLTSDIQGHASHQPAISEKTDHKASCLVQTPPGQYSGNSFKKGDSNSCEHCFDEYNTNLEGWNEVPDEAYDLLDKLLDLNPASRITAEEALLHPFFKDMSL

[3] = target: Tyrosine-protein kinase ABL1 (Homo sapiens) (UniProt P00519); assay: Inhibition of recombinant full length human His-tagged ABL1 expressed in baculovirus expression system using tyrosine-2 peptide as substrate at 10 uM incubated for 60 mins in presence of ATP by Z'-LYTE assay
[4] = target: T1, Aurora kinase A (Homo sapiens) (UniProt O14965); assay: Inhibition of recombinant human full length AURKA expressed in baculovirus expression system using Ser/Thr-01 peptide as substrate at 10 uM after 1 hr in presence of ATP by Z'LYTE assay
T1 sequence (whole entry): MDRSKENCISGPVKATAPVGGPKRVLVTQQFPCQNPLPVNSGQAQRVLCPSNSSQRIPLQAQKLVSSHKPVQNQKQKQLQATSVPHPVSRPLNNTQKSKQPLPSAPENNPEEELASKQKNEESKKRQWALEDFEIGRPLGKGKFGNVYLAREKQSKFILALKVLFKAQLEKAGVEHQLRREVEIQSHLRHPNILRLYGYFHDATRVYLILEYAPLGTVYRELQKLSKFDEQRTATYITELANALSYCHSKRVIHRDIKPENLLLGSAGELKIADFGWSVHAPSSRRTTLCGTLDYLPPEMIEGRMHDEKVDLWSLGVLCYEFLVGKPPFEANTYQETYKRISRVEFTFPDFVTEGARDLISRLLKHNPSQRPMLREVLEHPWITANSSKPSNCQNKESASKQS

[5] = target: Calcium/calmodulin-dependent protein kinase type 1D (Homo sapiens) (UniProt Q8IU85); assay: Inhibition of recombinant full length human His-tagged CAMK1delta expressed in baculovirus expression system using serine/threonine-25 peptide as substrate at 10 uM incubated for 60 mins in presence of ATP by Z'-LYTE assay
Chain of Calcium/calmodulin-dependent protein kinase type 1D (Homo sapiens) (Q8IU85 whole entry, looked up): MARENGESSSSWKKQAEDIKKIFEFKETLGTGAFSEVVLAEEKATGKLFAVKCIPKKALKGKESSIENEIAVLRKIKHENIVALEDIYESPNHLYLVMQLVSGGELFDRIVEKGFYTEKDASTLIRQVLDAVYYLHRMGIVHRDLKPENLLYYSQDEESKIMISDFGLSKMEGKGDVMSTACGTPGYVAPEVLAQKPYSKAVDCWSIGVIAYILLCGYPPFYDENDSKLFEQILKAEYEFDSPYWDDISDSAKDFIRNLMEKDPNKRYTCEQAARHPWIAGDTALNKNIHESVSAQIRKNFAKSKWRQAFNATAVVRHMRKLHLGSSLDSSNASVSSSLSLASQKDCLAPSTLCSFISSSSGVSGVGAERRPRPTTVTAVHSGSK

[6] = target: RAC-beta serine/threonine-protein kinase (Homo sapiens) (UniProt P31751); assay: Inhibition of recombinant full length human His-tagged AKT2 using serine/threonine-06 peptide as substrate at 10 uM incubated for 60 mins in presence of ATP by Z'-LYTE assay
[7] = target: Serine/threonine-protein kinase pim-2 (Homo sapiens) (UniProt Q9P1W9); assay: Inhibition of recombinant human GST-tagged PIM2 expressed in baculovirus expression system using serine/threonine-07 peptide as substrate at 10 uM by Z'-LYTE assay; details: time 60.0 min
[8] = target: Serine/threonine-protein kinase pim-3 (Homo sapiens) (UniProt Q86V86); assay: Inhibition of recombinant human GST-tagged PIM3 expressed in baculovirus expression system using serine/threonine-07 peptide as substrate at 10 uM by Z'-LYTE assay; details: time 60.0 min
[9] = target: Dual specificity tyrosine-phosphorylation-regulated kinase 1A (Homo sapiens) (UniProt Q13627); assay: Inhibition of recombinant human full length GST-tagged DYRK1A expressed in baculovirus expression system using serine/threonine-18 peptide as substrate at 10 uM incubated for 60 mins in presence of ATP by Z'-LYTE assay
[10] = target: Platelet-derived growth factor receptor alpha (Homo sapiens) (UniProt P16234); assay: Inhibition of recombinant human GST-tagged PDGFRA expressed in baculovirus expression system using Tyr-04 peptide as substrate at 10 uM by Z'-LYTE assay; details: time 60.0 min
[11] = target: Tyrosine-protein kinase Lck (Homo sapiens) (UniProt P06239); assay: Inhibition of recombinant human His-tagged LCK expressed in baculovirus expression system using Tyr-02 peptide as substrate at 10 uM incubated for 60 mins in presence of ATP by Z'-LYTE assay
[12] = target: Casein kinase I isoform epsilon (Homo sapiens) (UniProt P49674); assay: Inhibition of human CSNK1E expressed in baculovirus expression system using serine/threonine-11 peptide as substrate at 10 uM incubated for 60 mins in presence of ATP by Z'-LYTE assay
[13] = target: Glycogen synthase kinase-3 beta (Homo sapiens) (UniProt P49841); assay: Inhibition of recombinant human full length His-tagged GSK3B expressed in baculovirus expression system using serine/threonine-09 peptide as substrate at 10 uM incubated for 60 mins in presence of ATP by Z'-LYTE assay
Chain of Glycogen synthase kinase-3 beta (Homo sapiens) (P49841 whole entry, looked up): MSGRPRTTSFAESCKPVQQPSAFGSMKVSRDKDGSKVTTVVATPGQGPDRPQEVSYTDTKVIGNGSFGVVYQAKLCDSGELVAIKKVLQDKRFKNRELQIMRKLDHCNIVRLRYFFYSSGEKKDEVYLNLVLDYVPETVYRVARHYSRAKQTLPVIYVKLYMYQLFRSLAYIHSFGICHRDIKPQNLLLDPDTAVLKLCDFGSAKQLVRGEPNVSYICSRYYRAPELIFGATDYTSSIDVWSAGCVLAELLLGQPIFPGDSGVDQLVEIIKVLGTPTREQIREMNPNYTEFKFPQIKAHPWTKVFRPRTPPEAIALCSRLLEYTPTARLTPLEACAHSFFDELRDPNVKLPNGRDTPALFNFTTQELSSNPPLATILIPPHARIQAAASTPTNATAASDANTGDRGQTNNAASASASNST

[14] = target: Vascular endothelial growth factor receptor 2 (Homo sapiens) (UniProt P35968); assay: Inhibition of recombinant human His-tagged KDR expressed in baculovirus expression system using Tyr-01 peptide as substrate at 10 uM incubated for 60 mins in presence of ATP by Z'-LYTE assay
[15] = target: RAC-alpha serine/threonine-protein kinase (Homo sapiens) (UniProt P31749); assay: Inhibition of recombinant full length human His-tagged AKT1 using serine/threonine-06 peptide as substrate at 10 uM incubated for 60 mins in presence of ATP by Z'-LYTE assay
Chain of RAC-alpha serine/threonine-protein kinase (Homo sapiens) (P31749 whole entry): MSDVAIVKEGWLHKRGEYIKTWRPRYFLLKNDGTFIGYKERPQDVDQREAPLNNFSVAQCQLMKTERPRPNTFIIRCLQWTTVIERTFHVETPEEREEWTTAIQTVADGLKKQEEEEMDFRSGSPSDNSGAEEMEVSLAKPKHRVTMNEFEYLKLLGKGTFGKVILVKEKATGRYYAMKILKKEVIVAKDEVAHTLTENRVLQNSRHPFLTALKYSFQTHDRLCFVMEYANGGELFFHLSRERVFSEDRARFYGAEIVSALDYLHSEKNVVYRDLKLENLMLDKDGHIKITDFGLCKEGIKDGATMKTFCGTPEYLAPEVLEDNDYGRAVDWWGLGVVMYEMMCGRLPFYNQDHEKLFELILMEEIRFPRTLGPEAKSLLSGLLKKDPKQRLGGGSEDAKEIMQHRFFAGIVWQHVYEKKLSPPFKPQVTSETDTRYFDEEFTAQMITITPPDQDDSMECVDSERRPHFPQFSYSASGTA

[16] = target: Calcium/calmodulin-dependent protein kinase type II subunit alpha (Homo sapiens) (UniProt Q9UQM7); assay: Inhibition of recombinant full length human His-tagged CAMK2alpha expressed in baculovirus expression system using serine/threonine-4 peptide as substrate at 10 uM incubated for 60 mins in presence of ATP by Z'-LYTE assay
Chain of Calcium/calmodulin-dependent protein kinase type II subunit alpha (Homo sapiens) (Q9UQM7 whole entry): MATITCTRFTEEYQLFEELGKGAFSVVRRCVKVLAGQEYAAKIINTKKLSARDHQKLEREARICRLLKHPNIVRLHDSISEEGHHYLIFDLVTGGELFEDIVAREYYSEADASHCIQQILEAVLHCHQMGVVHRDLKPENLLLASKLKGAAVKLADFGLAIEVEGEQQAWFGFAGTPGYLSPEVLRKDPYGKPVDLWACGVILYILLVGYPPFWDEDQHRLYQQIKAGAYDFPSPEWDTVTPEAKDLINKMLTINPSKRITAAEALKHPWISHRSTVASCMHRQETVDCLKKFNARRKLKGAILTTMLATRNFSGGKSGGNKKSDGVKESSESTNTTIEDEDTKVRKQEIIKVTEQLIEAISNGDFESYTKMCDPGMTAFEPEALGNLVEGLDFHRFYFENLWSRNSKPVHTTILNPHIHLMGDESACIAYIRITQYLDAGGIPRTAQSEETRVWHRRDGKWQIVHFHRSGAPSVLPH

[17] = target: CDC7/DBF4 (Cell division cycle 7-related protein kinase/Activator of S phase kinase) (Homo sapiens) (UniProt Q9UBU7+O00311); assay: Inhibition of recombinant human GST tagged CDC7/Dbf4 expressed in baculovirus expression system at 10 uM by Z'-LYTE assay
Chain of CDC7/DBF4 (Cell division cycle 7-related protein kinase/Activator of S phase kinase) (Homo sapiens) (O00311 whole entry, looked up): as the sequence (O00311 whole entry, looked up) above
Chain of CDC7/DBF4 (Cell division cycle 7-related protein kinase/Activator of S phase kinase) (Homo sapiens) (Q9UBU7 whole entry, looked up): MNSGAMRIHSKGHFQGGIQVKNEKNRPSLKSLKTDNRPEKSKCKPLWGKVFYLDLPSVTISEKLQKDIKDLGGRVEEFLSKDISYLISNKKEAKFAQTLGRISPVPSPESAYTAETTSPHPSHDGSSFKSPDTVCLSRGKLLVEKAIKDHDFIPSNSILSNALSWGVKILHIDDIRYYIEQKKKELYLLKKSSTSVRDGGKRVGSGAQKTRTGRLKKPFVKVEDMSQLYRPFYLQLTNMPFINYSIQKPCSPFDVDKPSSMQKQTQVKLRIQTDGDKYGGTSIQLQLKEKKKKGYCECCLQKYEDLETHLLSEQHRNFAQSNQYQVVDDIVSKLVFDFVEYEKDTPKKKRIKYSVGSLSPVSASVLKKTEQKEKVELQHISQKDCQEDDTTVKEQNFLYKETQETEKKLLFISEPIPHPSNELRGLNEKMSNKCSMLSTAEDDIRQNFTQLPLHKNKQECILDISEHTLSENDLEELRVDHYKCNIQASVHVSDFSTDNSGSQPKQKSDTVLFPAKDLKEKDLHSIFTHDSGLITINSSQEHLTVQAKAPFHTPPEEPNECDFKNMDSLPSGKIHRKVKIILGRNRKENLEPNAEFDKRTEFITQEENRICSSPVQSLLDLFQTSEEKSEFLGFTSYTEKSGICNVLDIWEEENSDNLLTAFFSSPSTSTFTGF

[18] = target: Mitogen-activated protein kinase 3 (Homo sapiens) (UniProt P27361); assay: Inhibition of recombinant human full length GST-tagged MAPK3 expressed in Escherichia coli expression system using serine/threonine-03 peptide as substrate at 10 uM by Z'-LYTE assay; details: time 60.0 min
Chain of Mitogen-activated protein kinase 3 (Homo sapiens) (P27361 whole entry): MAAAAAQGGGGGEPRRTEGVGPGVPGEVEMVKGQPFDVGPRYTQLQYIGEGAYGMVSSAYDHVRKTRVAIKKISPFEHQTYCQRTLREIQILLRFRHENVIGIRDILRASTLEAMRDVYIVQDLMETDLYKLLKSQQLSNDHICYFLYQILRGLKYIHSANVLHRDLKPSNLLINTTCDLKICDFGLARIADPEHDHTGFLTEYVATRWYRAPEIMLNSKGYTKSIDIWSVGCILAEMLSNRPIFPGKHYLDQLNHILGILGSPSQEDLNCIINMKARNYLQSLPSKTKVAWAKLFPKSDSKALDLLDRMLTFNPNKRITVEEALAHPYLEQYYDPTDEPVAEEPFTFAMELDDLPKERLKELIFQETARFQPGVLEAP

inhibition [1]	inhibition [3]	inhibition [4]	inhibition [5]	inhibition [6]	inhibition [7]	inhibition [8]	inhibition [9]	inhibition [10]	inhibition [11]	inhibition [12]	inhibition [13]	inhibition [14]	inhibition [15]	inhibition [16]	inhibition [17]	inhibition [18]	Compound	inhibition [2]
inactive	inactive	inactive	inactive	inactive	inactive	inactive	inactive	inactive	inactive	inactive	inactive	inactive	inactive	inactive	Active	inactive	c1ccc(CSc2ncnc3[nH]cnc23)cc1	Active
inactive	inactive	inactive	inactive	inactive	inactive	inactive	inactive	inactive	inactive	inactive	inactive	inactive	inactive	inactive	Active	inactive	Clc1cccc(CSc2ncnc3[nH]cnc23)c1	Active

Compound	inhibition [1]	inhibition [3]	inhibition [4]	inhibition [5]	inhibition [6]	inhibition [7]	inhibition [8]	inhibition [9]	inhibition [10]	inhibition [11]	inhibition [12]	inhibition [13]	inhibition [14]	inhibition [15]	inhibition [16]	inhibition [17]	inhibition [18]	inhibition [2]
Brc1ccccc1CSc1ncnc2[nH]cnc12	inactive	inactive	inactive	inactive	inactive	inactive	inactive	inactive	inactive	inactive	inactive	inactive	inactive	inactive	inactive	Active	inactive	Active
